According to the NIST ThermoML archive (doi:10.1016/j.tca.2013.03.025):

Experiment: xn = mol fraction of the nth substance listed
Conditions: 101 kPa, Liquid; for viscosity: Concentric cylinders viscometry; for mass density: Vibrating tube method

CCCCOC(=O)C(C)O (stereo not given) [butyl 2-hydroxypropanoate] + OCCCO
Conditions	mass density [kg/m3]	viscosity [mPa·s]
288.15 K, x1 = 0.0999	1046.52	55.22
288.15 K, x1 = 0.2	1037.84	41.92
288.15 K, x1 = 0.3001	1029.39	31.27
288.15 K, x1 = 0.4	1022.24	22.91
288.15 K, x1 = 0.4999	1015.45	16.95
288.15 K, x1 = 0.5999	1009.2	12.66
288.15 K, x1 = 0.6996	1003.51	9.596
288.15 K, x1 = 0.8001	997.914	7.373
288.15 K, x1 = 0.9	992.76	5.629
288.15 K, x1 = 1	987.269	4.628
293.15 K, x1 = 0.0999	1043.16	42.99
293.15 K, x1 = 0.2	1034.24	32.73
293.15 K, x1 = 0.3001	1025.58	24.47
293.15 K, x1 = 0.4	1018.23	18.13
293.15 K, x1 = 0.4999	1011.25	13.54
293.15 K, x1 = 0.5999	1004.84	10.21
293.15 K, x1 = 0.6996	999.008	7.805
293.15 K, x1 = 0.8001	993.26	6.064
293.15 K, x1 = 0.9	987.976	4.686
293.15 K, x1 = 1	982.366	3.88
298.15 K, x1 = 0.0999	1039.79	33.94
298.15 K, x1 = 0.2	1030.62	25.91
298.15 K, x1 = 0.3001	1021.73	19.59
298.15 K, x1 = 0.4	1014.19	14.51
298.15 K, x1 = 0.4999	1007.03	10.96
298.15 K, x1 = 0.5999	1000.47	8.355
298.15 K, x1 = 0.6996	994.488	6.444
298.15 K, x1 = 0.8001	988.587	5.056
298.15 K, x1 = 0.9	983.173	3.957
298.15 K, x1 = 1	977.448	3.307
303.15 K, x1 = 0.0999	1036.41	27.14
303.15 K, x1 = 0.2	1026.99	20.8
303.15 K, x1 = 0.3001	1017.87	15.82
303.15 K, x1 = 0.4	1010.14	11.86
303.15 K, x1 = 0.4999	1002.79	8.984
303.15 K, x1 = 0.5999	996.07	6.919
303.15 K, x1 = 0.6996	989.946	5.405
303.15 K, x1 = 0.8001	983.896	4.286
303.15 K, x1 = 0.9	978.359	3.386
303.15 K, x1 = 1	972.515	2.86
308.15 K, x1 = 0.0999	1033	21.95
308.15 K, x1 = 0.2	1023.33	16.89
308.15 K, x1 = 0.3001	1013.99	12.93
308.15 K, x1 = 0.4	1006.06	9.744
308.15 K, x1 = 0.4999	998.523	7.491
308.15 K, x1 = 0.5999	991.652	5.805
308.15 K, x1 = 0.6996	985.382	4.581
308.15 K, x1 = 0.8001	979.183	3.667
308.15 K, x1 = 0.9	973.522	2.929
308.15 K, x1 = 1	967.567	2.481
313.15 K, x1 = 0.0999	1029.57	17.95
313.15 K, x1 = 0.2	1019.65	13.87
313.15 K, x1 = 0.3001	1010.09	10.69
313.15 K, x1 = 0.4	1001.96	8.124
313.15 K, x1 = 0.4999	994.239	6.299
313.15 K, x1 = 0.5999	987.21	4.926
313.15 K, x1 = 0.6996	980.794	3.922
313.15 K, x1 = 0.8001	974.453	3.171
313.15 K, x1 = 0.9	968.668	2.558
313.15 K, x1 = 1	962.603	2.181
318.15 K, x1 = 0.0999	1026.13	14.83
318.15 K, x1 = 0.2	1015.95	11.5
318.15 K, x1 = 0.3001	1006.16	8.916
318.15 K, x1 = 0.4	997.828	6.84
318.15 K, x1 = 0.4999	989.925	5.351
318.15 K, x1 = 0.5999	982.743	4.221
318.15 K, x1 = 0.6996	976.184	3.391
318.15 K, x1 = 0.8001	969.697	2.768
318.15 K, x1 = 0.9	963.791	2.253
318.15 K, x1 = 1	957.624	1.935
323.15 K, x1 = 0.0999	1022.65	12.36
323.15 K, x1 = 0.2	1012.21	9.627
323.15 K, x1 = 0.3001	1002.2	7.519
323.15 K, x1 = 0.4	993.673	5.813
323.15 K, x1 = 0.4999	985.589	4.586
323.15 K, x1 = 0.5999	978.248	3.65
323.15 K, x1 = 0.6996	971.548	2.958
323.15 K, x1 = 0.8001	964.924	2.435
323.15 K, x1 = 0.9	958.899	2.002
323.15 K, x1 = 1	952.631	1.728
